Measured values reported in ChEMBL document CHEMBL1146947, “Synthesis and ocular effects of imidazole nitrolic acid and amidoxime esters” (Bioorg Med Chem Lett, 2006).
Activity calls are given as the source filed them. The calls are words filed in the database; no cut-off is given here.

Columns and labels:
[1] = target: T1, Soluble guanylate cyclase (Homo sapiens) (UniProt Q02153+O75343+P33402+Q02108); assay: Effect on cGMP production in porcine iris-ciliary body at 10 uM; type: functional; conditions: Sus scrofa, target entry is the homologue from another species
[2] = target: T1, Soluble guanylate cyclase (Homo sapiens); assay: Effect on cGMP production in porcine iris-ciliary body at 100 uM; type: functional; conditions: Sus scrofa, target entry is the homologue from another species
Oryctolagus cuniculus [3] = assay: Lowering of intraocular pressure in rabbit eye at 10 mM administered topically; type: functional, organism-based
Oryctolagus cuniculus [4] = organism: Oryctolagus cuniculus; assay: Lowering of intraocular pressure in rabbit eye intravitreally injected with 10 mM; type: functional, organism-based

Row | Structure (SMILES) | Activity [1] | Activity [2] | Activity (Oryctolagus cuniculus [3]) | Activity (Oryctolagus cuniculus [4])
1 | Cn1cncc1C(=N)NOC(=O)C(C)(C)C | 0.63 pmol/mg | 0.24 pmol/mg | inactive | 
2 | CCCC(=O)O/N=C(/c1c[nH]cn1)[N+](=O)[O-] | 0.5 pmol/mg | 0.38 pmol/mg | inactive | 
3 | CC(=O)ONC(=N)c1cncn1C |  |  | inactive | inactive
4 | CC(=O)O/N=C(/c1c[nH]cn1)[N+](=O)[O-] | 0.45 pmol/mg | 0.78 pmol/mg | inactive | 

More lines, main results first:

Row | Activity [1] | Activity [2] | Structure (SMILES) | Activity (Oryctolagus cuniculus [3]) | Activity (Oryctolagus cuniculus [4])
5 | 0.36 pmol/mg | 0.73 pmol/mg | CC(C)(C)C(=O)O/N=C(/c1c[nH]cn1)[N+](=O)[O-] | inactive | 
6 | 0.23 pmol/mg | 0.24 pmol/mg | CCCC(=O)ONC(=N)c1cncn1C | inactive | 
